Assay results: ChEMBL document CHEMBL4265919, “Structural alterations based on naproxen scaffold: Synthesis, evaluation of antitumor activity and COX-2 inhibition, and molecular docking” (Eur J Med Chem, 2018)

Columns and labels:
HCT-116 = test: Antiproliferative activity against human HCT116 cells by MTT assay; assay type: functional, cell-based
MDA-MB-231 = test: Antiproliferative activity against human MDA231 cells by MTT assay; assay type: functional, cell-based
HeLa = test: Antiproliferative activity against human HeLa cells by MTT assay; assay type: functional, cell-based
MCF7 = test: Antiproliferative activity against human MCF7 cells by MTT assay; assay type: functional, cell-based
Caco-2 = test: Antiproliferative activity against human Caco2 cells by MTT assay; assay type: functional, cell-based
[1] = molecular target: T1, Prostaglandin G/H synthase 1 (Ovis aries, UniProt P05979); test: Inhibition of ovine COX1 using arachidonic acid as substrate incubated for 5 mins followed by substrate addition measured after 2 mins by colorimetric based ELISA
T1 sequence (P05979 whole entry): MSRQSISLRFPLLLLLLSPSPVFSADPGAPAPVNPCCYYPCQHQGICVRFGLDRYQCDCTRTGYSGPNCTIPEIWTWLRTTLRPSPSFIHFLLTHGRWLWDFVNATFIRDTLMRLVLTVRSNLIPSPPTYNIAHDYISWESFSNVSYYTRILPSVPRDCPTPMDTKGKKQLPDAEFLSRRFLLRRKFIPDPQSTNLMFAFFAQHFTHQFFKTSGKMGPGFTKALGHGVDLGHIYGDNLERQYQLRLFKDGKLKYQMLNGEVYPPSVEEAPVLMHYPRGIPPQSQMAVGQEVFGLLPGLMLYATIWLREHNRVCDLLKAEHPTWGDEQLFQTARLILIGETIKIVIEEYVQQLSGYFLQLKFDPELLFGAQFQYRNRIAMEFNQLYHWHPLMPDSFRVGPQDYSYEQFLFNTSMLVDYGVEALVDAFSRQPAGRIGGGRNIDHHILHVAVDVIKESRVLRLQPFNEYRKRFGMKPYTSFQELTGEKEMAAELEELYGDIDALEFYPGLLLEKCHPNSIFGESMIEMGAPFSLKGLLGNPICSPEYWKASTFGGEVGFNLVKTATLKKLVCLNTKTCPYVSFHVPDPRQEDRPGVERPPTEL

Row | IC50 (HCT-116) [µM] | IC50 (MDA-MB-231) [µM] | IC50 (HeLa) [µM] | IC50 (MCF7) [µM] | IC50 (Caco-2) [µM] | IC50 [1] [µM] | Structure (SMILES)
1 | 39.9 | 29.5 | 26.2 | 57.2 | 73.5 | > 25 | COc1ccc2cc(C(C)c3nnc(SC)o3)ccc2c1 (stereo not drawn)
2 | 10.5 | 7.29 | 6.15 | 5.89 | 33.9 | > 25 | COc1ccc2cc(C(C)c3nnc(-c4ccc(O)cc4)o3)ccc2c1 (stereo not drawn)
3 | 49.8 | 37.2 | 78.6 | 79.3 | 58.2 | > 25 | COc1ccc2cc(C(C)C(=O)NN3C(=O)c4ccccc4C3=O)ccc2c1 (stereo not drawn)
4 | 19.1 | 14.8 | 65.6 | 61.7 | 28 | > 25 | COc1ccc2cc(C(C)c3n[nH]c(=S)n3/N=C/c3ccccc3)ccc2c1 (stereo not drawn)
5 | 8.76 | 8.14 | 12.1 | 9.26 | 16 | > 25 | COc1ccc2cc(C(C)c3n[nH]c(=S)n3/N=C/c3cccc(Br)c3)ccc2c1 (stereo not drawn)
6 | > 100 | 89.4 | > 100 | 91.4 | > 100 | – | COc1ccc2cc(C(C)c3nnc(SCc4ccccc4)o3)ccc2c1 (stereo not drawn)
7 | > 100 | 80.7 | 69.1 | 71.5 | > 100 | – | COc1ccc2cc(C(C)C(=O)NN=C3CCCC3)ccc2c1 (stereo not drawn)
8 | 22.1 | 11.1 | 15.1 | 21.9 | 39.5 | > 25 | COc1ccc2cc(C(C)C(=O)NN3C(=O)C=CC3=O)ccc2c1 (stereo not drawn)
9 | 14.5 | 9.65 | 13 | 12.1 | 18.8 | > 25 | COc1ccc2cc(C(C)C(=O)NN=C3CCCCC3)ccc2c1 (stereo not drawn)
10 | 67.4 | 49.2 | – | – | 81.3 | – | COc1ccc2cc(C(C)c3nnc4n3N=C(c3ccccc3)CS4)ccc2c1 (stereo not drawn)
11 | 83.6 | 72 | 51.6 | 68.7 | > 100 | – | COc1ccc2cc(C(C)C(=O)NN=C3CCN(C)CC3)ccc2c1 (stereo not drawn)
12 | 75 | 66.3 | 35.1 | 42.1 | > 100 | > 25 | COc1ccc2cc(C(C)c3nnc(-c4ccc([N+](=O)[O-])cc4)o3)ccc2c1 (stereo not drawn)
13 | 28.4 | 16.2 | 19.4 | 31.7 | 43.9 | > 25 | COc1ccc2cc(C(C)c3nnc(-c4ccc(C)cc4)o3)ccc2c1 (stereo not drawn)

Further lines, the compound ahead of its results:

Row | Structure (SMILES) | IC50 (HCT-116) [µM] | IC50 (MDA-MB-231) [µM] | IC50 (HeLa) [µM] | IC50 (MCF7) [µM] | IC50 (Caco-2) [µM] | IC50 [1] [µM]
14 | COc1ccc2cc(C(C)c3n[nH]c(=S)n3/N=C/c3ccc(O)cc3)ccc2c1 (stereo not drawn) | 5.14 | 4.83 | 9.03 | 7.74 | 13.8 | > 25
15 | COc1ccc2cc(C(C)c3n[nH]c(=S)n3N)ccc2c1 (stereo not drawn) | 60.5 | 41.8 | 20.7 | 38.3 | 77.7 | > 25
16 | CN(C)C/C=C/C(=O)Nc1cc2c(Nc3ccc(F)c(Cl)c3)ncnc2cc1O[C@H]1CCOC1 [AFATINIB] | 11.4 | 7.5 | 6.2 | 7.1 | 7.7 | –
17 | COc1cccc2c1C(=O)c1c(O)c3c(c(O)c1C2=O)C[C@@](O)(C(=O)CO)C[C@@H]3O[C@H]1C[C@H](N)[C@H](O)[C@H](C)O1 [DOXORUBICIN] | – | – | – | – | 26.8 | –
18 | Cc1ccc(-c2cc(C(F)(F)F)nn2-c2ccc(S(N)(=O)=O)cc2)cc1 [CELECOXIB] | 29.5 | 22.8 | 36.1 | 31.3 | 42.7 | –
19 | COc1ccc2cc(C(C)c3nnc4n3NC(=O)CS4)ccc2c1 (stereo not drawn) | > 100 | 93.8 | 86.4 | 85.7 | > 100 | –
20 | COc1ccc2cc(C(C)c3nnc(SC4CCCC4)o3)ccc2c1 (stereo not drawn) | 34.3 | 23.2 | 48.9 | 47.1 | 50.9 | > 25
21 | COc1ccc2cc(C(C)C(=O)NN=C3CCCCCC3)ccc2c1 (stereo not drawn) | 44.7 | 32.7 | 59.4 | 48.2 | 46.1 | > 25
22 | COc1ccc2cc(C(C)C(=O)NN3C(=O)CCC3=O)ccc2c1 (stereo not drawn) | 56.2 | 52.8 | 30.4 | 26.7 | 63.8 | > 25
